Key:
[1] = system: Ba/F3 (EGFR Δ19del/T790M/C797S) cells; test: Anti-proliferation experiment on cells (2), Ba/F3 (EGFR Δ19del/T790M/C797S); assay type: cell-based; settings: for IC50: Ba/F3 EGFR, 72 h, Ba/F3 cells, 3 days, read-out: anti-proliferation effect on cells Ba/F3(Δ19del/T790M/C797S) IC50
Description: The compounds ware transferred to a 384-well plate, with 125 nL of compound per well. […] After 3 days, 25 μL of detection reagent was added. The plate was incubated at room temperature for 10 minutes and then read with Envision.

[2] = system: pEGFR Ba/F3 (EGFR Δ19del/T790M/C797S) cells; test: Cell phosphorylation inhibition experiment, pEGFR Ba/F3 (EGFR Δ19del/T790M/C797S); assay type: cell-based; settings: for IC50: Ba/F3 EGFR, Ba/F3 cells, EGF stimulated, read-out: Effect on cellular EGFR phosphorylation Ba/F3(Δ19del/T790M/C797S) IC50
Description: The test compounds and reference compounds were diluted with 100% DMSO to 10 mM or 1 mM, and then a gradient dilution was performed by using Echo, 150 nL per well, with a three-fold concentration gradient and a ten-point dose response curve. The final concentration of the compounds was 100 μM or 10 μM. The suspension cells was centrifuged at 1000 rp for 5 minutes, suspend in Hanks' balanced salt solution, and added to a 384-well plate containing the compounds at 10 L/120K/well (the cell density of 1.2×10^7), followed by centrifugation at 1200 rpm for 30 s and incubation at 37° C. for 30 min. 5 μL of EGF (which has been diluted with 0.1% BSA Hanks' balanced salt solution) was added to each well, in which the final concentration of EGF was 1 μM. The plate was centrifuged at 1200 rpm for 30 s and incubated at 37° C. for 20 min. 5 μL of 4× lysis buffer containing blocking solution was added to each well, and then the plate was centrifuged at 1200 rpm for 30 s, and incubated at 37° C. for 30 min.

[3] = molecular target: EGFR (Δ19del/T790M/C797S) (Homo sapiens, UniProt P00533, C797S/T790M, form not given); test: Enzyme activity experiment (1): EGFR (Δ19del/T790M/C797S) enzyme inhibition; assay type: biochemical; settings: read-out: EGFR (Δ19del/T790M/C797S) IC50
Description: 1) 10 μL of the compounds to be tested and reference compounds diluted to 10 mM were taken into an Echo LDV plate, which were diluted according to the compound profile with Echo.
1) 1×enzyme reaction buffer was prepared: 1× enzyme buffer, 5 mM MgCl2, 1 mM DTT (dithiothreitol), water.
2) A mixed solution of 10 nM enzyme (final concentration of 5 nM) and 2 μM substrate (final concentration of 1 μM) and a solution containing the substrate alone were prepared with the diluted enzyme reaction buffer.
3) 5 μL of the substrate was added into A1-H1, J24-P24 (the number of the well position), and 5 μL of the mixture of the enzyme and substrate was added into the remaining wells.
4) Centrifugation was performed at 1000 rpm at 23° C. for 30 s.
5) Incubation was performed at 23° C. for 15 min.
7) Centrifugation was performed at 1000 rpm at 23° C. for 30 s.
8) Incubation was performed at 23° C. for 60 min.
9) 10 μL of 250 nM TK Antibody-Crypate (a final concentration of 125 nM) and 1×D2 (a final concentration ½ time) prepared with Detection buffer were added.
10) Centrifugation was performed at 1000 rpm at 23° C. for 30 s.
11) Incubation was performed at 23° C. for 60 min.
12) The data was read with Envision, and the ratio was calculated to obtain the IC50 of the compound for inhibiting the enzyme activity.

[4] = system: Ba/F3 (Δ19del/T790M/C797S) xenograft; test: In vivo efficacy (1): Ba/F3 (Δ19del/T790M/C797S) subcutaneous xenograft (CDX) in BALB/c nude mice;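 also: female nude mice, dosing begun at mean tumor size near 80–120 mm^3, tumors measured by caliper twice weekly, volume in mm^3 computed as 0.5×long×short diameter squared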
Description: BALB/c nude mice, female, 6-8 weeks old, 18-20 g of body weight, were housed in SPF-grade environment, and each cage was individually ventilated (5 mice per cage). […] A total of 48 mice purchased from Beijing Weitonglihua company were used for the study. Each mouse was implanted with cells at the right flank, for tumor growth. The experiment was started when the average tumor volume reached approximately 80-120 mm^3. […] Tumor volume was measured twice a week with a two-dimensional caliper, measured in mm^3 and calculated by the following formula: V=0.5a×b^2, wherein a and b are the long and short diameters of the tumor, respectively. Antitumor efficacy was determined by dividing the average increase of the tumor volume of the animals treated with the compound by the average increase of the tumor volume of the untreated animals.

Sequence of EGFR (Δ19del/T790M/C797S) (P00533 25-1210 T790M/C797S limits assumed, form open): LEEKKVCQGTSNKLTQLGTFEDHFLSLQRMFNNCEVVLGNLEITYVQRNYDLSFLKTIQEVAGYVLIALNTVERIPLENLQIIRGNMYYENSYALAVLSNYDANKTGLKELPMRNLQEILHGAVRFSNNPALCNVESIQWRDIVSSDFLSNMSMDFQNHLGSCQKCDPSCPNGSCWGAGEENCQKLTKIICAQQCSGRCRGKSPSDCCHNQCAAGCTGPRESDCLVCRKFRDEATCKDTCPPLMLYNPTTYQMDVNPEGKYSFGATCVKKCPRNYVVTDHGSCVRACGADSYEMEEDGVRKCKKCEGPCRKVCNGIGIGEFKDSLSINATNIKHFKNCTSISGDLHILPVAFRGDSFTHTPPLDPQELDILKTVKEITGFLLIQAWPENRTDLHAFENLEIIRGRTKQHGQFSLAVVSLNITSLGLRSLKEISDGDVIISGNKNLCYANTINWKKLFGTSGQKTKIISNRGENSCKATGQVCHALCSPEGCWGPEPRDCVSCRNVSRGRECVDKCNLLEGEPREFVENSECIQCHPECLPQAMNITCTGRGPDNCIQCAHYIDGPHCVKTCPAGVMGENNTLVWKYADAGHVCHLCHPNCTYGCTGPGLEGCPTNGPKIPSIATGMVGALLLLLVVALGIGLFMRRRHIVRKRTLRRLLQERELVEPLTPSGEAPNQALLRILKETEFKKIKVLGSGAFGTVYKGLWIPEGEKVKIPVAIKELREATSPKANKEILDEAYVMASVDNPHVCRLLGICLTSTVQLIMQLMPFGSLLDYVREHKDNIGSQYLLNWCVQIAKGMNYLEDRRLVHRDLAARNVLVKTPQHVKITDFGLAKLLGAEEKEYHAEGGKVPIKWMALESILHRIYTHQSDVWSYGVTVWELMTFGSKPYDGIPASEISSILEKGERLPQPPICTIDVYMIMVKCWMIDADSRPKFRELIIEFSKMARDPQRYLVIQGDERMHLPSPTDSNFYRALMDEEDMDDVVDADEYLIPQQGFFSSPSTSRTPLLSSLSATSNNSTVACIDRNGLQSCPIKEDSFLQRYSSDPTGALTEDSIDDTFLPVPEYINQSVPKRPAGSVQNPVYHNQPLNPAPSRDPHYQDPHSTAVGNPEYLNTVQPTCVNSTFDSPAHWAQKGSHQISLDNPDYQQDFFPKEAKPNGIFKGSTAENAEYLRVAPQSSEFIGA

IC50 [1]	SMILES	other results
79 nM	CCc1cc(Nc2ncc(Br)c(Nc3ccc4ccccc4c3P(C)(C)=O)n2)c(OC)cc1N1CCC2(CC1)CN(C)C2 [Compound 32]	IC50 [2]: 57 nM
764 nM	COc1cc(N2CCC3(CC2)CN(C)C3)c(C)cc1Nc1ncc(C#N)c(Nc2ccc3ccccc3c2P(C)(C)=O)n1 [Compound 26]	IC50 [3]: 0.679 nM
180 nM	COc1cc(N2CCC(N3CCN(C)CC3)CC2)c(Cl)cc1Nc1ncc(Cl)c(Nc2ccc3ccccc3c2P(C)(C)=O)n1 [Compound 11]	–
18.6 nM	CCc1cc(Nc2ncc(Br)c(Nc3ccc4nccnc4c3P(C)(C)=O)n2)c(OC)cc1N1CCC2(CCN(C)CC2)CC1 [Example 58]	–
290 nM	COc1cc(N2CCC3(CC2)CN(CCO)C3)c(C)cc1Nc1ncc(Cl)c(Nc2ccc3ccccc3c2P(C)(C)=O)n1 [Compound 30]	–
351 nM	COc1cc(N2CCC3(CCN(C)CC3)CC2)c(Cl)cc1Nc1ncc(Cl)c(Nc2ccc3c(c2P(C)(C)=O)C(=O)CC3)n1 [Compound 14]	–
249 nM	COc1cc(N2CCC3(CC2)CN(C)C3)c(C)cc1Nc1nc(Nc2ccc3ccccc3c2P(C)(C)=O)c2cc[nH]c2n1 [Compound 22]	–
371 nM	COc1cc(N2CCC(N3CCN(C)CC3)CC2)ccc1Nc1ncc(Br)c(Nc2ccc3c(c2P(C)(C)=O)CCC3)n1 [Compound 38]	–
–	COc1cc(N2CCC3(CCN(C)CC3)CC2)c(Cl)cc1Nc1ncc(Cl)c(Nc2ccc3sccc3c2P(C)(C)=O)n1 [Compound 1]	IC50 [3]: 2.64 nM
26.8 nM	COc1cc(N2CCC3(CCN(C)CC3)CC2)c(C)cc1Nc1ncc(Br)c(Nc2ccc3nccnc3c2P(C)(C)=O)n1 [Example 57]	–
162 nM	COc1cc(N2CCC3(CC2)CN(C(C)C)C3)c(C)cc1Nc1ncc(Br)c(Nc2ccc3ccccc3c2P(C)(C)=O)n1 [Compound 33]	–
1650 nM	COc1ccc(OCCNCc2cnccn2)cc1Nc1ncc(Cl)c(Nc2ccc3ccccc3c2P(C)(C)=O)n1 [Compound 18]	IC50 [3]: 25.3 nM
6030 nM	COc1cc(N2CCC3(CCN(C)CC3)CC2)c(Cl)cc1Nc1ncc(Cl)c(Nc2ccc3cccnc3c2P(C)(C)=O)n1 [Compound 10]	–
642 nM	COc1cc(N2CCC3(CC2)CN(C)C3)c(C)cc1Nc1ncc(C2CC2)c(Nc2ccc3ccccc3c2P(C)(C)=O)n1 [Compound 25]	IC50 [3]: 1.79 nM
242 nM	COc1cc(N2CCC3(CC2)CN(C(C)C)C3)c(C)cc1Nc1ncc(Cl)c(Nc2ccc3sccc3c2P(C)(C)=O)n1 [Compound 31]	–
442 nM	COc1cc(N2CCC(N3CCN(C)CC3)CC2)ccc1Nc1ncc(Cl)c(Nc2ccc3scnc3c2P(C)(C)=O)n1 [Compound 42]	–
87 nM	COc1cc(N2CCN(C)CC2)c(C)cc1Nc1ncc(Br)c(Nc2ccc3nccnc3c2P(C)(C)=O)n1 [Example 45]	IC50 [2]: 27 nM
–	COc1cc(N2CCC(N(C)C)CC2)c(C)cc1Nc1ncc(Br)c(Nc2ccc3nccnc3c2P(C)(C)=O)n1 [Compound 44]	IC50 [2]: 9 nM

IC50 [1]	SMILES	other results
1590 nM	COc1ccc(OCCNS(C)(=O)=O)cc1Nc1ncc(Cl)c(Nc2ccc3ccccc3c2P(C)(C)=O)n1 [Compound 29]	IC50 [3]: 67.6 nM
211 nM	COc1cc(N2CCC3(CC2)CN(C)C3)c(C)cc1Nc1ncc(Cl)c(Nc2ccc3c(c2P(C)(C)=O)CCC3)n1 [Compound 16]	IC50 [3]: 0.491 nM
533 nM	COc1cc(N2CCC(N3CCN(C)CC3)CC2)ccc1Nc1ncc(Cl)c(Nc2ccc3c(c2P(C)(C)=O)CCC3)n1 [Compound 35]	–
496 nM	COc1cc(N2CCC(N3CCN(C)CC3)CC2)ccc1Nc1ncc(Cl)c(Nc2ccc3cccnc3c2P(C)(C)=O)n1 [Compound 43]	–
214 nM	COc1cc(N2CCC3(CC2)CN(CCN(C)C)C3)c(C)cc1Nc1ncc(Cl)c(Nc2ccc3ccccc3c2P(C)(C)=O)n1 [Compound 20]	IC50 [3]: < 0.0508 nM
39 nM	COc1cc(N2CCC(N3CCN(C)CC3)CC2)c(Cl)cc1Nc1ncc(Br)c(Nc2ccc3nccnc3c2P(C)(C)=O)n1 [Example 54]	–
103 nM	COc1cc(N2CCC3(CC2)CN(C)C3)c(C)cc1Nc1ncc(Br)c(Nc2ccc3ccccc3c2P(C)(C)=O)n1 [Compound 23]	IC50 [3]: 0.0517 nM; IC50 [2]: 34 nM
152 nM	COc1cc(N2CCC(N3CCN(C)CC3)CC2)c(C)cc1Nc1ncc(C)c(Nc2ccc3nccnc3c2P(C)(C)=O)n1 [Example 48]	–
275 nM	COc1cc(N2CCC3(CC2)CN(C)C3)c(C)cc1Nc1ncc(Cl)c(Nc2ccc3nccnc3c2P(C)(C)=O)n1 [Compound 8]	IC50 [3]: 0.792 nM; IC50 [2]: 133 nM
583 nM	COc1cc(N2CCC3(CC2)CN(C)C3)c(C)cc1Nc1ncc(Cl)c(Nc2ccc3c(ccn3C)c2P(C)(C)=O)n1 [Compound 15]	–
> 5000 nM	COc1cc(N2CCC(N3CCN(C)CC3)CC2)ccc1Nc1ncc(Cl)c(Nc2ccc3[nH]cnc3c2P(C)(C)=O)n1 [Comparative Example 1, reference compound]	inhibitory effect on Ba/F3 cells with three mutations (EGFR Δ19del/T790M/C797S) ([1]; in words): almost no inhibitory effect; IC50 [2]: 1010 nM; inhibitory effect on the phosphorylation of Ba/F3 (Δ19del/T790M/C797S) cells ([2]; in words): almost no inhibitory effect
1220 nM	COc1ccc(OCCNCc2cccnc2)cc1Nc1ncc(Cl)c(Nc2ccc3ccccc3c2P(C)(C)=O)n1 [Compound 19]	IC50 [3]: 12.9 nM
36 nM	COc1cc(N2CCC(N3CCN(C)CC3)CC2)c(C)cc1Nc1ncc(Br)c(Nc2ccc3scnc3c2P(C)(C)=O)n1 [Example 51]	–
187 nM	COc1cc(N2CCC3(CC2)CN(CCN(C)C)C3)c(C)cc1Nc1ncc(Cl)c(Nc2ccc3nccnc3c2P(C)(C)=O)n1 [Compound 39]	IC50 [2]: 195 nM
–	COc1cc(N2CCC(N3CCN(C)CC3)CC2)ccc1Nc1ncc(Cl)c(Nc2ccc3cccnc3c2P(C)(C)=O)n1 [Compound 7]	IC50 [2]: 533 nM
4080 nM	COc1cc(N2CCC3(CC2)CN(C)C3)c(C)cc1Nc1ncc(C(C)=O)c(Nc2ccc3ccccc3c2P(C)(C)=O)n1 [Compound 24]	–
2710 nM	COc1cc(N2CCC3(CC2)CN(C)C3)c(C)cc1Nc1ncc(-c2nnc(C)o2)c(Nc2ccc3ccccc3c2P(C)(C)=O)n1 [Compound 27]	–
–	COc1cc(N2CCC(N3CCN(C)CC3)CC2)ccc1Nc1ncc(Cl)c(Nc2ccccc2P(C)(C)=O)n1 [Birgatinib, reference compound]	TGI (the tumor inhibition value) ([4]; 15 mg/kg oral daily, 13 consecutive days): 8.6%; Tumor volume Day 0 ([4]; 15 mg/kg/day oral, Day 0): 84 mm^3; Tumor volume Day 2 ([4]; 15 mg/kg/day oral, Day 2): 124 mm^3; Tumor volume Day 5 ([4]; 15 mg/kg/day oral, Day 5): 292 mm^3; Tumor volume Day 8 ([4]; 15 mg/kg/day oral, Day 8): 477 mm^3; Tumor volume Day 10 ([4]; 15 mg/kg/day oral, Day 10): 646 mm^3; Tumor volume Day 12 ([4]; 15 mg/kg/day oral, Day 12): 880 mm^3; Tumor volume Day 13 ([4]; 15 mg/kg/day oral, Day 13): 965 mm^3

SMILES	IC50 [1]	other results
COc1cc(N2CCC3(CC2)CN(C)C3)c(C)cc1Nc1ncc(OC(=O)N(C)C)c(Nc2ccc3ccccc3c2P(C)(C)=O)n1 [Compound 17]	4750 nM	IC50 [3]: 856 nM
